Assay results taken from patent US11584727B2, “2-thioxothiazolidin-4-one derivatives active as transthyretin ligands and uses thereof” (BSIM Therapeutics, S.A., priority 2014, dated 2023).

Columns and labels:
[1] = molecular target: T1, wild type transthyretin (WT-TTR) (Homo sapiens, UniProt P02766); assay: WT-TTR amyloid fibril formation assay (turbidimetry, acid-induced); assay type: biochemical; settings: pH 4.4, 72 hours; for Fibril Formation (%): WT-TTR 3.6 μM, 1:1 TTR-compound stoichiometry, 37° C., normalized to no-compound control (100%); for IC50: WT-TTR fixed at 3.6 μM, ten compound concentrations
T1 construct: made in house; host or cells: E. coli BL21 (DE3), pET23a plasmid
Method: (§1) The first set of evaluations is based on a fast, stagnant fibril formation assay that is used for the early screening of compounds, be they virtual screening hits or newly synthesized analogues. In this assay, a solution of the compound under test at 1.8, 3.6 or 7.2 μM is added to a solution of TTR at 3.6 μM, so that there is enough compound to bind to either one or both of TTR's binding sites. The pH of the resulting solution is then lowered to 4.4 to promote amyloidogenesis. The process of amyloid fibril formation over time is assessed by turbidimetry measurements at three different wavelengths (405, 450 and 490 nm, or at 550, 600 and 650 nm when the compound absorbs light at the previous wavelengths), using a spectrophotometer endowed with a BioTek microplate reader. The extent of fibril formation of each mixture is determined by normalizing a sample with the protein (TTR), in absence of compounds, which, at the end of 72 hours, represents 100% of amyloid fibril formation. In each experiment, each compound concentration is tested in triplicate. For each compound concentration and incubation time, the arithmetic mean of the triplicate experiments is calculated, as well as the arithmetic mean of the three measured wavelengths. High activity can be defined as a percentage of fibril formation below 10% at compound concentration 7.2 μM (TTR:compound stoichiometry 1:2) and below 40% at 3.6 μM (TTR:compound stoichiometry 1:1).
The in vitro activity of the compounds was assessed through a biochemical assay based on turbidimetry measurements, in which fibril formation is induced by acidification of the solution to pH 4.4 after incubation with the hit compound to be tested. The amount of amyloid fibrils formed is then monitored throughout 72 hours. Further details on this assay are provided in the “Evaluation of amyloid inhibition in vitro” subsection in “Materials and Methods”.
Experimental evaluation of the in vitro activity of virtual screening hits against amyloid fibril formation by TTR was carried out using a biochemical assay based on turbidimetry measurements. In this assay, fibril formation is induced by acidification of the solution to pH 4.4 after incubation with the hit compound to be tested. The amount of amyloid fibrils formed is monitored over 72 hours. Further details on the assay are provided in the “Evaluation of amyloid inhibition in vitro” subsection below.
(§2) Purchased virtual screening hits and all synthesized (optimization) derivatives were dissolved in DMSO to a final concentration of 10.8 mM to provide a primary stock solution. Several secondary stock solutions were prepared in DMSO by dilution of the primary stock solution and the concentrations were chosen depending on the effectiveness of the compound in inhibiting the TTR amyloid fibril formation.
(§3) The fibril formation assay was adapted to run in a high-throughput screening mode. For this purpose, 96-well microplates were used with a final assay volume of 100 μL.
(§4) One microLitre (μL) of different compound secondary stock solutions was added to 50 μL of a 7.2 μM wild type TTR (WT-TTR) or Val122Ile-TTR (V122I-TTR) solutions in 10 miliMolar (mM) sodium phosphate buffer, 100 mM KCl and 1 mM EDTA, pH 7.2, previously dialyzed against the same buffer solution. After 30 minutes of incubation at room temperature, the pH of the mixture was lowered to 4.4 with 49 μL of 200 mM acetate buffer, 100 mM KCl and 1 mM EDTA, pH 4.3.
(§5) The mixtures were incubated at 37° C. during 72 hours. Turbidity at 405 nm, 450 nm and 490 nm (or at 550, 600 and 650 nm when the test compound absorbs light at the previous wavelengths) was measured over time (0, 17, 24, 41, 48, 65 and 72 hours) using a BioTek Microplate Spectrophotometer to evaluate the extent of fibril formation. Immediately before the turbidity measurements, the mixtures were gently shacked during 1 minute to homogenize well and not damage the formed amyloid aggregates and fibrils.

[2] = molecular target: Val122Ile transthyretin (V122I-TTR) (Homo sapiens, UniProt P02766, V142I); assay: V122I-TTR amyloid fibril formation assay (turbidimetry, acid-induced); assay type: biochemical; settings: pH 4.4, 72 hours; for Fibril Formation (%): V122I-TTR 3.6 μM, 37° C.; for IC50: V122I-TTR fixed at 3.6 μM, ten compound concentrations
Method: as §1, §2, §3, §4
as §5, with “fibrils. The final turbidity was calculated as an average of the three wavelengths measured.” for “fibrils.”
In addition, control samples containing TTR with no inhibitor and 1% DMSO, as well as inhibitor in absence of TTR were tested and analyzed.
The extent of amyloid fibril formation data was normalized to TTR in the absence of inhibitor, assigned to be 100% fibril formation (or 0% amyloid inhibition) at the end of the experiment.
The extent of amyloid fibril formation throughout 72 hours was determined as described in the “Evaluation of amyloid inhibition in vitro” subsection above.
IC50 values were calculated from the inhibition curves obtained by fitting the values by a nonlinear curve method using the OriginPro7 (OriginLab Corporation, USA).

[3] = HepG2 cell viability, resazurin reduction assay; assay type: cell-based; settings: human, HepG2 hepatoma cells, approximately 72 hours incubation, read-out: inhibitory dose (ID50), cell viability
Description: Cell viability of HepG2 hepatoma cells was quantified in order to assess the toxicity of the compounds at increasing concentrations. The used assay is described in detail in the “Experimental Evaluation of Cytotoxicity of Compounds using Cell-based Assays” section in “Materials and Methods”. This is a relevant assessment not just to discard potential concerns of liver damage (which is a problem reported for many drugs) but also because of the long-term nature of the treatments that patients suffering from TTR-mediated amyloidoses need to undertake.
Adherent human hepatoma cells HepG2 were cultured in DMEM (Dulbecco's Modified Eagle's Medium) with 10% fetal bovine serum (FBS), 100 U/mL penicillin, […] streptomycin, and 1 mM sodium pyruvate. The cells were grown in 75 cm^2 culture flasks at 37° C., in an atmosphere of 5% CO2, and subcultured twice a week using a trypsin-EDTA solution.
Upon 3 to 4 days of growth and reaching approximately 90% confluence, HepG2 cells were plated in 96-well microplates with cell density of 12×10^3 cells/well and in a volume of 100 μL per well.
The compounds are dissolved in DMSO and subsequently diluted in DMEM (in 9 intermediate […] concentrations). After adhesion of HepG2 cells to the microplates, […] 100 μL of each solution of intermediate compound concentration were added to each well (in quadruplicate). Positive controls were done with 10 wells containing only cells; solvent controls resulted from the analysis of the three highest DMSO concentrations tested and were carried out in triplicate.
After addition of the compounds to the cells, the microplates were incubated for approximately 72 hours at 37° C. in an atmosphere of 5% CO2 until the cell viability assay was performed.
The cell viability of HepG2 cells in the presence of test compounds was assessed by the resazurin reduction assay. Resazurin is a redox indicator that is converted into resorufin through reduction reactions of metabolically active cells. In the oxidized form it presents a purplish blue color, while the reduced form presents a purple-pink color.
A stock solution of 0.01% resazurin in PBS is diluted 1:10 in incomplete RPMI 1640 cell medium (without addition of antibiotics and FBS). After washing the cells with 200 μL PBS containing Ca^2+ and Mg^2+, 200 μL of resazurin 0.001% are added to the wells. Control runs with incomplete RPMI 1640 medium only and (without cells) are done in triplicate. […]
To quantify the reduction of resazurin to resorufin, microplate absorbance readings were taken at two wavelengths, 540 nm (reduced form) and 630 nm (oxidized form), in a Biotek spectrophotometer microplate reader. The percentage of viable cells at each compound concentration is determined using the formula: […]

Row | Compound | Fibril Formation (%) [1] | IC50 [1] | melting point | Fibril Formation (%) [2] | IC50 [2] | inhibitory activity against TTR amyloid fibril formation compared with reference compounds (in words) ([1]; TTR 3.6 μM) | IC50 at 72 h [3]
1 | O=C(O)CCCN1C(=O)/C(=C/c2cc(Cl)c(O)c(Cl)c2)SC1=S [AT50-C10, (Z)-5-(3′,5′-dichloro-4′-hydroxyphenylmethylidene)-3-(3′-hydroxycarbonylpropyl)-2-thioxothiazolidin-4-one] | 27% | 1.87 ± 0.16 µM | 247 to 249 °C | 37% | 2.46 µM | – | –
2 | O=C(O)CCN1C(=O)/C(=C/c2cc(Cl)c(O)c(Cl)c2)SC1=S [AT50-C15, (Z)-3-(2′-hydroxycarbonylethyl)-5-(3′,5′-dichloro-4′-hydroxyphenylmethylidene)-2-thioxothiazolidin-4-one] | 7% | 1.03 ± 0.1 µM | 259 to 260 °C | 17% | 1.62 µM | superior to that of 2OH-PCB80 | –
3 | O=C(O)CCN1C(=O)/C(=C/c2cc(F)c(O)c(F)c2)SC1=S [AT50-C13, (Z)-5-(3′,5′-difluoro-4′-hydroxyphenylmethylidene)-3-(2′-hydroxycarbonylethyl)-2-thioxothiazolidin-4-one] | 32% | 2.31 ± 0.45 µM | 216 to 217 °C | 36% | 2.6 µM | – | –
4 | O=C(O)CN1C(=O)/C(=C/c2cc(F)c(O)c(F)c2)SC1=S [AT50-A06, (Z)-3-hydroxycarbonylmethyl-5-(3′,5′-difluoro-4′-hydroxyphenylmethylidene)-2-thioxothiazolidin-4-one] | 28% | 1.81 ± 0.4 µM | 221 to 222 °C | – | – | – | > 400 µM
5 | O=C(O)CN1C(=O)/C(=C/c2cc(O)c(O)c(Cl)c2)SC1=S [AT50-A01, (Z)-5-(3′-chloro-4′,5′-dihydroxyphenylmethylidene)-3-hydroxycarbonylmethyl-2-thioxothiazolidin-4-one] | 12% | 1.45 ± 0.04 µM | 241 to 242 °C | 29% | 2.34 µM | – | –
6 | O=C(O)CN1C(=O)/C(=C/c2cc(F)cc(F)c2)SC1=S [AT50-A12, (Z)-3-hydroxycarbonylmethyl-5-(3′,5′-difluorophenylmethylidene)-2-thioxothiazolidin-4-one] | 44% | 2.88 ± 0.24 µM | 225 to 227 °C | 91% | 7.8 µM | – | –
7 | Cc1cc(/C=C2\SC(=S)N(CCC(=O)O)C2=O)cc(C)c1O [AT50-C16, (Z)-3-(2′-hydroxycarbonylethyl)-5-(4′-hydroxy-3′,5′-dimethylphenylmethylidene)-2-thioxothiazolidin-4-one] | 24% | 2.29 ± 0.13 µM | 253 to 254 °C | 41% | 2.71 µM | – | –
8 | O=C(O)CCCN1C(=O)/C(=C/c2cc(F)c(O)c(F)c2)SC1=S [AT50-C09, (Z)-5-(3′,5′-difluoro-4′-hydroxyphenylmethylidene)-3-(3′-hydroxycarbonylpropyl)-2-thioxothiazolidin-4-one] | 33% | 2.45 ± 0.35 µM | 207 to 209 °C | 48% | 3.19 µM | – | –
9 | O=C(O)CCN1C(=O)/C(=C/c2cc(Cl)cc(Cl)c2)SC1=S [AT50-C14, (Z)-3-(2′-hydroxycarbonylethyl)-5-(3′,5′-dichlorophenylmethylidene)-2-thioxothiazolidin-4-one] | 26% | 1.95 ± 0.26 µM | 245 to 247 °C | 55% | 4.37 µM | – | –
10 | O=C(O)CN1C(=O)/C(=C/c2cc(Cl)cc(Cl)c2)SC1=S [AT50-A05, (Z)-3-hydroxycarbonylmethyl-5-(3′,5′-dichlorophenylmethylidene)-2-thioxothiazolidin-4-one] | 17% | 1.62 ± 0.13 µM | 272 to 273 °C | 28% | 2.32 µM | – | –
11 | Cc1cc(/C=C2\SC(=S)N(CC(=O)O)C2=O)cc(C)c1O [AT50-A17, (Z)-3-hydroxycarbonylmethyl-5-(4′-hydroxy-3′,5′-dimethylphenylmethylidene)-2-thioxothiazolidin-4-one] | 27% | 2.37 ± 0.47 µM | 261 to 263 °C | 51% | 3.16 µM | – | –
